Experimental data from publication PMC12888861, “Antibacterial activity of enmetazobactam against Acinetobacter spp.: a molecular dissection of mechanism of action and resistance determinants” (Antimicrobial Agents and Chemotherapy, 2025).
Like-named read-outs stand apart in the source and are kept apart here.

Tested on: A. non-baumannii isolates (n = 87)
Assay: MIC, broth microdilution (EUCAST), A. non-baumannii isolates
Assay type: cell-based, Acinetobacter spp. (non-baumannii)
Settings: for MIC: in combinations ETZ fixed at 8 mg/L
Excerpt: The bacterial strains used in this study comprised 208 clinical isolates from the Spanish National Acinetobacter spp. 2020 Multicenter Collection, which was previously characterized in detail by our research group, including whole-genome sequencing, phylogenetics studies, clonal dynamics, and resistance mechanisms ([2], [29]). Additionally, a collection of A. baumannii ATCC 17978 transformants coding the blaOXA-23, blaOXA-24/40, blaOXA-51, blaOXA-58, blaOXA-143, and blaOXA-201 genes, previously constructed and described by our group ([30]), was used to determine the activity of enmetazobactam against strains carrying the main CHDLs of A. baumannii.
The antimicrobial susceptibility of the 208 Acinetobacter spp. isolates was assessed using the broth microdilution method, as described in the European Committee on Antimicrobial Susceptibility Testing (EUCAST) v.15 guidelines (http://www.eucast.org/clinical_breakpoints). […] MICs for enmetazobactam alone were assessed as well. […] Subsequently, MIC testing was also conducted with a collection of A. baumannii ATCC 17978 transformants expressing clinically relevant OXA-like carbapenemase genes.
The A. baumannii ATCC 19606 strain was used as the reference strain in all susceptibility experiments, in duplicate assays. Antibiotics were purchased from Sigma-Aldrich, except enmetazobactam and durlobactam, which were obtained from Advanz Pharma and MedChemExpress, respectively.

[1] = Acinetobacter, A. non-baumannii isolates (n=87), ETZ fixed 8 mg/L in combinations

With `C[C@@H](O)[C@H]1C(=O)N2C(C(=O)O)=C(SCCN=CN)C[C@H]12` [imipenem] the “MIC distribution 0.12” value was 71.3, the MIC (Acinetobacter baylyi, isolate NO-Ab27, Acinetobacter baylyi, read-out: MIC) was 0.12 µg/mL and the MIC (Acinetobacter beijerinckii, isolate NO-Ab122, Acinetobacter beijerinckii, read-out: MIC) was 0.12 µg/mL. For the same molecule, the MIC (Acinetobacter bereziniae, isolate NO-Ab70, Acinetobacter bereziniae, read-out: MIC) was 0.12 µg/mL, the MIC (Acinetobacter bereziniae, isolate NO-Ab84, Acinetobacter bereziniae, read-out: MIC) was 0.12 µg/mL and the MIC (Acinetobacter bereziniae, isolate NO-Ab104, Acinetobacter bereziniae, read-out: MIC) was 0.12 µg/mL. The MIC (Acinetobacter bereziniae, isolate NO-Ab114, Acinetobacter bereziniae, read-out: MIC) was 0.12 µg/mL, the MIC (Acinetobacter bereziniae, isolate NO-Ab115, Acinetobacter bereziniae, read-out: MIC) was 0.25 µg/mL and the MIC (Acinetobacter bereziniae, isolate NO-Ab116, Acinetobacter bereziniae, read-out: MIC) was 0.25 µg/mL. It also gave an MIC (Acinetobacter bereziniae, isolate NO-Ab117, Acinetobacter bereziniae, read-out: MIC) of 0.12 µg/mL, an MIC (Acinetobacter bereziniae, isolate NO-Ab129, Acinetobacter bereziniae, read-out: MIC) of 0.25 µg/mL and an MIC (Acinetobacter bereziniae, isolate NO-Ab156, Acinetobacter bereziniae, read-out: MIC) of 0.12 µg/mL. The MIC (Acinetobacter calcoaceticus, isolate NO-Ab85, Acinetobacter calcoaceticus, read-out: MIC) was 0.12 µg/mL, the MIC (Acinetobacter calcoaceticus, isolate NO-Ab94, Acinetobacter calcoaceticus, read-out: MIC) was ≤ 0.06 µg/mL and the MIC (Acinetobacter calcoaceticus, isolate NO-Ab108, Acinetobacter calcoaceticus, read-out: MIC) was ≤ 0.06 µg/mL. The MIC (Acinetobacter calcoaceticus, isolate NO-Ab161, Acinetobacter calcoaceticus, read-out: MIC) was 0.12 µg/mL, the MIC (Acinetobacter calcoaceticus, isolate NO-Ab198, Acinetobacter calcoaceticus, read-out: MIC) was ≤ 0.06 µg/mL and the MIC (Acinetobacter calcoaceticus, isolate NO-Ab205, Acinetobacter calcoaceticus, read-out: MIC) was 0.25 µg/mL. For the same molecule, the MIC (Acinetobacter calcoaceticus, isolate NO-Ab211, Acinetobacter calcoaceticus, read-out: MIC) was 0.12 µg/mL, the MIC (Acinetobacter courvalinii, isolate NO-Ab216, Acinetobacter courvalinii, read-out: MIC) was 0.5 µg/mL and the MIC (Acinetobacter dispersus, isolate NO-Ab2, Acinetobacter dispersus, read-out: MIC) was ≤ 0.06 µg/mL. The MIC (Acinetobacter guillouiae, isolate NO-Ab69, Acinetobacter guillouiae, read-out: MIC) was ≤ 0.06 µg/mL, the MIC (Acinetobacter guillouiae, isolate NO-Ab74, Acinetobacter guillouiae, read-out: MIC) was 0.25 µg/mL and the MIC (Acinetobacter haemolyticus, isolate NO-Ab92, Acinetobacter haemolyticus) was 0.12 µg/mL. The MIC (Acinetobacter haemolyticus, isolate NO-Ab177, Acinetobacter haemolyticus) was 0.12 µg/mL, the MIC (Acinetobacter haemolyticus, isolate NO-Ab217, Acinetobacter haemolyticus) was 0.12 µg/mL and the MIC (Acinetobacter johnsonii, isolate NO-Ab101, Acinetobacter johnsonii, read-out: MIC) was 0.12 µg/mL. The MIC (Acinetobacter junii, isolate NO-Ab76, Acinetobacter junii, read-out: MIC) was ≤ 0.06 µg/mL, the MIC (Acinetobacter junii, isolate NO-Ab77, Acinetobacter junii, OXA-24/40, read-out: MIC) was 32 µg/mL and the MIC (Acinetobacter lactucae, isolate NO-Ab60, Acinetobacter dijkshoorniae, read-out: MIC) was 0.25 µg/mL. It also gave an MIC (Acinetobacter lactucae, isolate NO-Ab63, Acinetobacter dijkshoorniae, read-out: MIC) of 0.25 µg/mL, an MIC (Acinetobacter lactucae, isolate NO-Ab65, Acinetobacter dijkshoorniae, read-out: MIC) of 0.25 µg/mL and an MIC (Acinetobacter lactucae, isolate NO-Ab86, Acinetobacter dijkshoorniae, read-out: MIC) of 0.12 µg/mL. The MIC (Acinetobacter lactucae, isolate NO-Ab88, Acinetobacter dijkshoorniae, read-out: MIC) was 0.12 µg/mL, the MIC (Acinetobacter lactucae, isolate NO-Ab91, Acinetobacter dijkshoorniae, read-out: MIC) was 0.12 µg/mL and the MIC (Acinetobacter lactucae, isolate NO-Ab121, Acinetobacter dijkshoorniae, read-out: MIC) was 0.12 µg/mL. For the same molecule, the MIC (Acinetobacter lactucae, isolate NO-Ab125, Acinetobacter dijkshoorniae, read-out: MIC) was ≤ 0.06 µg/mL, the MIC (Acinetobacter lactucae, isolate NO-Ab160, Acinetobacter dijkshoorniae, read-out: MIC) was 0.12 µg/mL and the MIC (Acinetobacter nosocomialis, isolate NO-Ab43, Acinetobacter nosocomialis, read-out: MIC) was ≤ 0.06 µg/mL. The MIC (Acinetobacter nosocomialis, isolate NO-Ab68, Acinetobacter nosocomialis, OXA-24/40, read-out: MIC) was 32 µg/mL, the MIC (Acinetobacter nosocomialis, isolate NO-Ab98, Acinetobacter nosocomialis, read-out: MIC) was 0.12 µg/mL and the MIC (Acinetobacter nosocomialis, isolate NO-Ab208, Acinetobacter nosocomialis, read-out: MIC) was 0.12 µg/mL. The MIC (Acinetobacter pittii, isolate NO-Ab59, Acinetobacter pittii, read-out: MIC) was 0.25 µg/mL, the MIC (Acinetobacter pittii, isolate NO-Ab66, Acinetobacter pittii, read-out: MIC) was 0.25 µg/mL and the MIC (Acinetobacter pittii, isolate NO-Ab73, Acinetobacter pittii, read-out: MIC) was ≤ 0.06 µg/mL. For the same molecule, the MIC (Acinetobacter pittii, isolate NO-Ab75, Acinetobacter pittii, read-out: MIC) was 0.25 µg/mL, the MIC (Acinetobacter pittii, isolate NO-Ab78, Acinetobacter pittii, read-out: MIC) was ≤ 0.06 µg/mL and the MIC (Acinetobacter pittii, isolate NO-Ab82, Acinetobacter pittii, read-out: MIC) was ≤ 0.06 µg/mL. The MIC (Acinetobacter pittii, isolate NO-Ab89, Acinetobacter pittii, read-out: MIC) was 0.12 µg/mL, the MIC (Acinetobacter pittii, isolate NO-Ab90, Acinetobacter pittii, read-out: MIC) was ≤ 0.06 µg/mL and the MIC (Acinetobacter pittii, isolate NO-Ab97, Acinetobacter pittii, read-out: MIC) was ≤ 0.06 µg/mL. The MIC (Acinetobacter pittii, isolate NO-Ab105, Acinetobacter pittii, read-out: MIC) was 0.12 µg/mL, the MIC (Acinetobacter pittii, isolate NO-Ab106, Acinetobacter pittii, read-out: MIC) was ≤ 0.06 µg/mL and the MIC (Acinetobacter pittii, isolate NO-Ab107, Acinetobacter pittii, read-out: MIC) was ≤ 0.06 µg/mL. The MIC (Acinetobacter pittii, isolate NO-Ab111, Acinetobacter pittii, read-out: MIC) was 0.12 µg/mL, the MIC (Acinetobacter pittii, isolate NO-Ab113, Acinetobacter pittii, read-out: MIC) was 0.25 µg/mL and the MIC (Acinetobacter pittii, isolate NO-Ab118, Acinetobacter pittii, read-out: MIC) was 0.12 µg/mL. The MIC (Acinetobacter pittii, isolate NO-Ab135, Acinetobacter pittii, read-out: MIC) was 0.12 µg/mL, the MIC (Acinetobacter pittii, isolate NO-Ab145, Acinetobacter pittii, read-out: MIC) was 0.12 µg/mL and the MIC (Acinetobacter pittii, isolate NO-Ab151, Acinetobacter pittii, read-out: MIC) was 0.25 µg/mL. It also gave an MIC (Acinetobacter pittii, isolate NO-Ab154, Acinetobacter pittii, read-out: MIC) of 0.25 µg/mL, an MIC (Acinetobacter pittii, isolate NO-Ab157, Acinetobacter pittii, read-out: MIC) of 0.25 µg/mL and an MIC (Acinetobacter pittii, isolate NO-Ab162, Acinetobacter pittii, read-out: MIC) of 0.12 µg/mL. The MIC (Acinetobacter pittii, isolate NO-Ab164, Acinetobacter pittii, read-out: MIC) was ≤ 0.06 µg/mL, the MIC (Acinetobacter pittii, isolate NO-Ab178, Acinetobacter pittii, read-out: MIC) was 0.12 µg/mL and the MIC (Acinetobacter pittii, isolate NO-Ab197, Acinetobacter pittii, read-out: MIC) was 0.12 µg/mL. For the same molecule, the MIC (Acinetobacter proteolyticus, isolate NO-Ab99, Acinetobacter proteolyticus, read-out: MIC) was 0.25 µg/mL, the MIC (Acinetobacter proteolyticus, isolate NO-Ab102, Acinetobacter proteolyticus, read-out: MIC) was 0.25 µg/mL and the MIC (Acinetobacter proteolyticus, isolate NO-Ab210, Acinetobacter proteolyticus, read-out: MIC) was ≤ 0.06 µg/mL. The MIC (Acinetobacter radioresistens, isolate NO-Ab175, Acinetobacter radioresistens, read-out: MIC) was 0.25 µg/mL, the MIC (Acinetobacter radioresistens, isolate NO-Ab215, Acinetobacter radioresistens, read-out: MIC) was 0.12 µg/mL and the MIC (Acinetobacter ursingii, isolate NO-Ab3, Acinetobacter ursingii, read-out: MIC) was ≤ 0.06 µg/mL. The MIC (Acinetobacter ursingii, isolate NO-Ab64, Acinetobacter ursingii, read-out: MIC) was ≤ 0.06 µg/mL, the MIC (Acinetobacter ursingii, isolate NO-Ab87, Acinetobacter ursingii, read-out: MIC) was ≤ 0.06 µg/mL and the MIC (Acinetobacter ursingii, isolate NO-Ab103, Acinetobacter ursingii, read-out: MIC) was ≤ 0.06 µg/mL. For the same molecule, the MIC (Acinetobacter ursingii, isolate NO-Ab119, Acinetobacter ursingii, read-out: MIC) was 0.25 µg/mL, the MIC (Acinetobacter ursingii, isolate NO-Ab120, Acinetobacter ursingii, read-out: MIC) was ≤ 0.06 µg/mL and the MIC (Acinetobacter ursingii, isolate NO-Ab123, Acinetobacter ursingii, read-out: MIC) was ≤ 0.06 µg/mL. The MIC (Acinetobacter ursingii, isolate NO-Ab126, Acinetobacter ursingii, read-out: MIC) was 0.12 µg/mL, the MIC (Acinetobacter ursingii, isolate NO-Ab147, Acinetobacter ursingii, read-out: MIC) was 0.25 µg/mL and the MIC (Acinetobacter ursingii, isolate NO-Ab155, Acinetobacter ursingii, read-out: MIC) was 0.25 µg/mL. For the same molecule, the MIC (Acinetobacter ursingii, isolate NO-Ab165, Acinetobacter ursingii, read-out: MIC) was 0.12 µg/mL, the MIC (Acinetobacter ursingii, isolate NO-Ab166, Acinetobacter ursingii, read-out: MIC) was ≤ 0.06 µg/mL and the MIC (Acinetobacter ursingii, isolate NO-Ab214, Acinetobacter ursingii, read-out: MIC) was ≤ 0.06 µg/mL. The MIC (Acinetobacter ursingii, isolate NO-Ab221, Acinetobacter ursingii, read-out: MIC) was ≤ 0.06 µg/mL, the MIC (Acinetobacter ursingii, isolate NO-Ab222, Acinetobacter ursingii, read-out: MIC) was ≤ 0.06 µg/mL and the MIC (Acinetobacter, isolate NO-Ab146, Acinetobacter iwoffii, read-out: MIC) was 0.25 µg/mL. For the same molecule, the MIC (Acinetobacter, isolate NO-Ab159, Acinetobacter iwoffii, read-out: MIC) was ≤ 0.06 µg/mL, the MIC50 [1] was 0.12 µg/mL and the MIC90 [1] was 0.25 µg/mL. For the same molecule, the “MIC distribution 0.25” value (cumulative share of A. non-baumannii isolates (n=87) at MIC 0.25 mg/L, ETZ fixed 8 mg/L in combinations) was 96.6, the “MIC distribution 0.5” value (cumulative share of A. non-baumannii isolates (n=87) at MIC 0.5 mg/L, ETZ fixed 8 mg/L in combinations) was 97.7 and the “MIC distribution 1” value (cumulative share of A. non-baumannii isolates (n=87) at MIC 1 mg/L, ETZ fixed 8 mg/L in combinations) was 97.7. For the same molecule, the “MIC distribution 2” value (cumulative share of A. non-baumannii isolates (n=87) at MIC 2 mg/L, ETZ fixed 8 mg/L in combinations) was 97.7, the “MIC distribution 4” value (cumulative share of A. non-baumannii isolates (n=87) at MIC 4 mg/L, ETZ fixed 8 mg/L in combinations) was 97.7 and the “MIC distribution 8” value (cumulative share of A. non-baumannii isolates (n=87) at MIC 8 mg/L, ETZ fixed 8 mg/L in combinations) was 97.7. The “MIC distribution 16” value (cumulative share of A. non-baumannii isolates (n=87) at MIC 16 mg/L, ETZ fixed 8 mg/L in combinations) was 97.7, the “MIC distribution 32” value (cumulative share of A. non-baumannii isolates (n=87) at MIC 32 mg/L, ETZ fixed 8 mg/L in combinations) was 100 and the “MIC distribution ≤0.06” value (cumulative share of A. non-baumannii isolates (n=87) at MIC ≤0.06 mg/L, ETZ fixed 8 mg/L in combinations) was 32.2.
